Results reported in the supplement of paper PMC10307832.

Key:
Assay in all cases: relative viability (nuclei count vs DMSO), 5 days (fraction); higher = more cells survive
NCI-H23 = test system: NCI-H23
Method in brief: (§1)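 After 5 days of treatment, lung cancer cells in 1536-well plates were fixed and stained in a single step (final 0.05% Triton X-100, 1% formaldehyde, 1 ug/ml Hoechst) and their nuclei counted on 4× images. Treatment had been applied by pin tool the day after seeding as one drug alone or as a fixed anchor-drug dose with five library-drug doses (not always all listed) in √10 steps. Relative viability is the nuclei count of treated wells divided by that of vehicle wells, and values are medians of duplicate plates.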

EPLC-272H = test system: EPLC-272H
Method in brief: as §1

NCI-H1975 = test system: NCI-H1975
Method in brief: as §1

NCI-H2126 = test system: NCI-H2126
Method in brief: as §1

SW 900 = test system: SW 900
Method in brief: as §1

LK-2 = test system: LK-2
Method in brief: as §1

LXF-289 = test system: LXF-289
Method in brief: as §1

LU99A = test system: LU99A
Method in brief: as §1

HCC-78 = test system: HCC-78
Method in brief: as §1

ChaGo-K-1 = test system: ChaGo-K-1
Method in brief: as §1

LCLC-103H = test system: LCLC-103H
Method in brief: as §1

SK-LU-1 = test system: SK-LU-1
Method in brief: as §1

C[C@@H]1CN(CC(=O)Nc2ccc3c(c2)Cc2cccc(-c4cc(=O)cc(N5CCOCC5)o4)c2S3)C[C@H](C)O1 + O=C(c1cc(Cc2n[nH]c(=O)c3ccccc23)ccc1F)N1CCN(C(=O)C2CC2)CC1 [Olaparib] (partner 8 µM)
relative viability (NCI-H23; first compound 0.4 µM): 0.264
relative viability (NCI-H23; first compound 4 µM): 0.227
relative viability (EPLC-272H; first compound 0.04 µM): 0.956
relative viability (EPLC-272H; first compound 0.1265 µM): 0.81
relative viability (EPLC-272H; first compound 0.4 µM): 0.647
relative viability (EPLC-272H; first compound 4 µM): 0.317
relative viability (NCI-H1975; first compound 0.04 µM): 0.78
relative viability (NCI-H1975; first compound 0.1265 µM): 0.748
relative viability (NCI-H1975; first compound 0.4 µM): 0.713
relative viability (NCI-H1975; first compound 4 µM): 0.274
relative viability (NCI-H2126; first compound 0.04 µM): 0.928
relative viability (NCI-H2126; first compound 0.1265 µM): 0.873
relative viability (NCI-H2126; first compound 0.4 µM): 0.95
relative viability (NCI-H2126; first compound 4 µM): 0.928
relative viability (SW 900; first compound 0.04 µM): 0.869
relative viability (SW 900; first compound 0.1265 µM): 0.993
relative viability (SW 900; first compound 0.4 µM): 0.815
relative viability (SW 900; first compound 4 µM): 0.445
relative viability (LK-2; first compound 0.04 µM): 0.852
relative viability (LK-2; first compound 0.1265 µM): 0.724
relative viability (LK-2; first compound 0.4 µM): 0.575
relative viability (LK-2; first compound 4 µM): 0.321
relative viability (LXF-289; first compound 0.04 µM): 0.998
relative viability (LXF-289; first compound 0.1265 µM): 1.1
relative viability (LXF-289; first compound 0.4 µM): 1.21
relative viability (LXF-289; first compound 4 µM): 1.05
relative viability (LU99A; first compound 0.04 µM): 0.316
relative viability (LU99A; first compound 0.1265 µM): 0.282
relative viability (LU99A; first compound 0.4 µM): 0.259
relative viability (LU99A; first compound 4 µM): 0.246
relative viability (HCC-78; first compound 0.04 µM): 0.735
relative viability (HCC-78; first compound 0.1265 µM): 0.807
relative viability (HCC-78; first compound 0.4 µM): 0.925
relative viability (HCC-78; first compound 4 µM): 0.595
relative viability (ChaGo-K-1; first compound 0.04 µM): 0.461
relative viability (ChaGo-K-1; first compound 0.1265 µM): 0.428
relative viability (ChaGo-K-1; first compound 0.4 µM): 0.404
relative viability (ChaGo-K-1; first compound 4 µM): 0.389
relative viability (LCLC-103H; first compound 0.04 µM): 0.71
relative viability (LCLC-103H; first compound 0.1265 µM): 0.739
relative viability (LCLC-103H; first compound 0.4 µM): 0.771
relative viability (LCLC-103H; first compound 4 µM): 0.722
relative viability (SK-LU-1; first compound 0.04 µM): 0.566
relative viability (SK-LU-1; first compound 0.1265 µM): 0.667
relative viability (SK-LU-1; first compound 0.4 µM): 0.575
relative viability (SK-LU-1; first compound 4 µM): 0.219
